Bounds are passed on as bounds.

Data set [1] can be described thus: Clearance in human hepatocytes assessed per 10^6 cells. The class given is ADME, cell-based, Hepatocyte. The conditions noted are these: read-out: CLH.
Data set [2] can be described thus: Clearance in rat hepatocytes assessed per 10^6 cells. Format: ADME, cell-based, Hepatocyte. The conditions noted are these: read-out: CLH.

As to `CNC(=O)c1ccc(O)cc1OC[C@@H](O)CN1CCC2(CC1)Cc1cc(Cl)ccc1O2`, the hepatocyte CLint is less than 4.6 µL/min/1e6 cells in data set [1] and 33 µL/min/1e6 cells in data set [2].

Take `CNC(=O)c1ccc(O)cc1OC[C@@H](O)CN1CCC2(CC1)Cc1cc(F)ccc1O2`: the hepatocyte CLint in data set [1] stood at 26 µL/min/1e6 cells; in data set [2], 22 µL/min/1e6 cells. Take `O=C(NC1CC1)c1ccc(O)cc1OC[C@@H](O)CN1CCC2(CC1)Cc1cc(Cl)ccc1O2`: the hepatocyte CLint worked out at 10.6 µL/min/1e6 cells in data set [1] and 28 µL/min/1e6 cells in data set [2].

Consider `Cc1ccc(C(=O)N2CC[C@H](O)C2)c(OC[C@@H](O)CN2CCC3(CC2)Cc2cc(F)ccc2O3)c1`, for which the hepatocyte CLint in data set [1] was 10 µL/min/1e6 cells.

In the case of `Cc1ccc(C(=O)N2CC[C@H](O)C2)c(OC[C@@H](O)CN2CCC3(CC2)Cc2cc(Cl)ccc2O3)c1`, in data set [1], the hepatocyte CLint stood at 11 µL/min/1e6 cells. Consider `O=C(c1ccc(F)cc1OC[C@@H](O)CN1CCC2(CC1)Cc1cc(Cl)ccc1O2)N1CC[C@H](O)C1`, for which the hepatocyte CLint in data set [1] is 6.8 µL/min/1e6 cells; in data set [2], less than 4 µL/min/1e6 cells. For `O=C(c1cc(Cl)c(O)cc1OC[C@@H](O)CN1CCC2(CC1)Cc1cc(Cl)ccc1O2)N1CC[C@H](O)C1`, in that order: less than 3 µL/min/1e6 cells and 8.1 µL/min/1e6 cells. With `O=C(c1ccc(O)cc1OC[C@@H](O)CN1CCC2(CC1)Cc1cc(Cl)ccc1O2)N1CC[C@H](O)C1`, the hepatocyte CLint in data set [1] is less than 3 µL/min/1e6 cells; in data set [2] it was 6.7 µL/min/1e6 cells. In the same order, the values of `O=C(c1ccc(O)cc1OC[C@@H](O)CN1CCC2(CC1)Cc1cc(Cl)ccc1O2)N1CCCC1` are 9.6 µL/min/1e6 cells and 23 µL/min/1e6 cells.

For `O=C(c1ccc(O)cc1OC[C@@H](O)CN1CCC2(CC1)Cc1cc(Cl)ccc1O2)N1CCCCC1`, the hepatocyte CLint in data set [1] turned out to be 14 µL/min/1e6 cells. As for `O=C(NC1CC1)c1ccccc1OC[C@@H](O)CN1CCC2(CC1)Cc1cc(Cl)ccc1O2`, the hepatocyte CLint in data set [1] was 5.2 µL/min/1e6 cells; in data set [2] it was 45 µL/min/1e6 cells. With `COc1ccc(C(=O)NC2CC2)c(OC[C@@H](O)CN2CCC3(CC2)Cc2cc(Cl)ccc2O3)c1`, the hepatocyte CLint in data set [1] worked out at 15 µL/min/1e6 cells. Consider `O=C(NC1CC1)c1ccc(F)cc1OC[C@@H](O)CN1CCC2(CC1)Cc1cc(Cl)ccc1O2`, for which the hepatocyte CLint in data set [1] came to 4.6 µL/min/1e6 cells; in data set [2] it was 20 µL/min/1e6 cells.
